According to US20240174618A1, “SUBSTITUTED (2-HETEROARYLOXYPHENYL)SULFONATES, SALTS THEREOF AND THEIR USE AS HERBICIDAL AGENTS” (Bayer Aktiengesellschaft, priority 2021, published 2024):

Assays:
Format in all cases: in vivo
Lolium rigidum (LOLRI) = assay: A. Herbicidal pre-emergence efficacy, LOLRI
Source text: (§1) Seeds of mono- and dicotyledonous weed plants were placed in plastic pots in sandy loam soil (doubly sown with one species each of mono- or dicotyledonous weed plants per pot) and covered with soil. The compounds of the invention, formulated in the form of wettable powders (WP) or as emulsion concentrates (EC), were then applied onto the surface of the covering soil as aqueous suspension or emulsion with addition of 0.5% additive at a water application rate of 600 liters per hectare (converted). After the treatment, the pots were placed in a greenhouse and kept under good growth conditions for the test plants. After about 3 weeks, the efficacy of the preparations was scored visually in comparison with untreated controls as percentages.
(§2) For example, • 100% efficacy=plants have died, • 0% efficacy=like untreated control plants.
(§3) Tables A1a to A12c below show the effects of selected compounds of the general formula (I) according to table 1 on various harmful plants at an application rate corresponding to 1280 g/ha or less, which were obtained by the experimental procedure mentioned above.

[1] = system: Alopecurus myosuroides (ALOMY); assay: A. Herbicidal pre-emergence efficacy, ALOMY; details: 1280 g/ha; scored visually after about 3 weeks vs untreated controls
Source text: as §1, §2, §3

Stellaria media (STEME) [2] = assay: A. Herbicidal pre-emergence efficacy, STEME
Procedure, shortened: (§4)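 Applied before emergence onto covering soil at rates of 1280 g/ha or less, using 600 L/ha spray water with 0.5% additive. Scoring: visual % efficacy after ~3 weeks, greenhouse.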

[3] = system: Digitaria sanguinalis (DIGSA); assay: A. Herbicidal pre-emergence efficacy, DIGSA; details: scored visually after about 3 weeks vs untreated controls
Procedure, shortened: as §4

[4] = system: Matricaria inodora (MATIN); assay: A. Herbicidal pre-emergence efficacy, MATIN
Source text: as §1, §2, §3

Veronica persica (VERPE) [5] = assay: A. Herbicidal pre-emergence efficacy, VERPE
Procedure, shortened: as §4

[6] = system: Abutilon theophrasti (ABUTH); assay: A. Herbicidal pre-emergence efficacy, ABUTH; details: scored visually after about 3 weeks vs untreated controls
Procedure, shortened: as §4

Stellaria media (STEME) [7] = assay: B. Herbicidal post-emergence efficacy, STEME
Procedure, shortened: (§5)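 Post-emergence foliar spray, at application rates of 1280 g/ha or less, on one-leaf-stage plants 2–3 weeks post-sowing, using aqueous WP or EC suspensions with 0.5% additive at 600 L/ha. Visual percent efficacy relative to untreated plants scored roughly 3 weeks later in the greenhouse.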

Kochia scoparia (KCHSC) [8] = assay: B. Herbicidal post-emergence efficacy, KCHSC; details: for Post-emergence efficacy against KCHSC in %: rated visually after about 3 weeks; for Post-emergence efficacy against KCHSC: 1280 g/ha
Procedure, shortened: as §5

[9] = system: Amaranthus retroflexus (AMARE); assay: A. Herbicidal pre-emergence efficacy, AMARE
Procedure, shortened: as §4

[10] = system: Echinochloa crus-galli (ECHCG); assay: A. Herbicidal pre-emergence efficacy, ECHCG; details: scored visually after about 3 weeks vs untreated controls
Procedure, shortened: as §4

Setaria viridis (SETVI) [11] = assay: A. Herbicidal pre-emergence efficacy, SETVI
Procedure, shortened: as §4

Kochia scoparia (KCHSC) [12] = assay: A. Herbicidal pre-emergence efficacy, KCHSC; details: pre-emergence
Procedure, shortened: as §4

[13] = system: Abutilon theophrasti (ABUTH); assay: B. Herbicidal post-emergence efficacy, ABUTH; details: rated visually after about 3 weeks
Procedure, shortened: as §5

Poa annua (POAAN) [14] = assay: A. Herbicidal pre-emergence efficacy, POAAN
Procedure, shortened: as §4

[15] = system: Echinochloa crus-galli (ECHCG); assay: B. Herbicidal post-emergence efficacy, ECHCG; details: 1280 g/ha, rated visually after about 3 weeks
Procedure, shortened: as §5

Setaria viridis (SETVI) [16] = assay: B. Herbicidal post-emergence efficacy, SETVI; details: 1280 g/ha
Experimental: (§6) Seeds of mono- and dicotyledonous weed plants were placed in plastic pots in sandy loam soil (doubly sown with in each case one species of mono- or dicotyledonous weed plants per pot), covered with soil and cultivated in a greenhouse under controlled growth conditions. 2 to 3 weeks after sowing, the test plants were treated at the one-leaf stage. The compounds of the invention, formulated in the form of wettable powders (WP) or as emulsion concentrates (EC), were applied onto the green parts of the plants as aqueous suspension or emulsion with addition of 0.5% additive at a water application rate of 600 liters per hectare (converted). After the test plants had been kept in the greenhouse under optimum growth conditions for about 3 weeks, the activity of the preparations was rated visually in comparison to untreated controls.
(§7) For example, • 100% efficacy=plants have died, • 0% efficacy=like untreated control plants
(§8) Tables B1a to B12c below show the effects of selected inventive compounds of the general formula (I) according to table 1 on various harmful plants at an application rate corresponding to 1280 g/ha or less, which were obtained by the experimental procedure mentioned above.

[17] = system: Digitaria sanguinalis (DIGSA); assay: B. Herbicidal post-emergence efficacy, DIGSA; details: rated visually after about 3 weeks
Experimental: as §6, §7, §8

Veronica persica (VERPE) [18] = assay: B. Herbicidal post-emergence efficacy, VERPE
Procedure, shortened: as §5

Poa annua (POAAN) [19] = assay: B. Herbicidal post-emergence efficacy, POAAN; details: 1280 g/ha
Procedure, shortened: as §5

[20] = system: Amaranthus retroflexus (AMARE); assay: B. Herbicidal post-emergence efficacy, AMARE
Procedure, shortened: as §5

[21] = 320 g/ha, scored visually after about 3 weeks vs untreated controls
[22] = pre-emergence, dosage 1280 g/ha

O=S(=O)(CCCC(F)(F)F)Oc1c(Br)cccc1Oc1ncc(F)cn1 [Example I-44]
90%: Pre-emergence efficacy against MATIN [4, 21] | Post-emergence efficacy against ABUTH in % ([13]; 320 g/ha)
100%: Pre-emergence efficacy against LOLRI (Lolium rigidum (LOLRI); dosage 320 g/ha) | Pre-emergence efficacy against LOLRI (Lolium rigidum (LOLRI); dosage 1280 g/ha) | Pre-emergence efficacy against ALOMY [1] | Pre-emergence efficacy against STEME (Stellaria media (STEME) [2]; dosage 80 g/ha) | Pre-emergence efficacy against STEME (Stellaria media (STEME) [2]; dosage 320 g/ha) | Pre-emergence efficacy against STEME (Stellaria media (STEME) [2]; dosage 1280 g/ha) | Pre-emergence efficacy against DIGSA ([3]; 320 g/ha) | Pre-emergence efficacy against DIGSA ([3]; 1280 g/ha) | Pre-emergence efficacy against MATIN [4, 22] | Pre-emergence efficacy against VERPE in % (Veronica persica (VERPE) [5]; 320 g/ha) | Pre-emergence efficacy against VERPE in % (Veronica persica (VERPE) [5]; 1280 g/ha) | Pre-emergence efficacy against ABUTH ([6]; 1280 g/ha) | Post-emergence efficacy against STEME (Stellaria media (STEME) [7]; 80 g/ha) | Post-emergence efficacy against STEME (Stellaria media (STEME) [7]; 320 g/ha) | Post-emergence efficacy against STEME (Stellaria media (STEME) [7]; 1280 g/ha) | Post-emergence efficacy against KCHSC in % (Kochia scoparia (KCHSC) [8]; 80 g/ha) | Post-emergence efficacy against KCHSC in % (Kochia scoparia (KCHSC) [8]; 320 g/ha) | Post-emergence efficacy against KCHSC (Kochia scoparia (KCHSC) [8]) | Pre-emergence efficacy against AMARE in % ([9]; 80 g/ha) | Pre-emergence efficacy against AMARE in % ([9]; 320 g/ha) | Pre-emergence efficacy against AMARE in % ([9]; 1280 g/ha) | Pre-emergence efficacy against ECHCG ([10]; 320 g/ha) | Pre-emergence efficacy against ECHCG ([10]; 1280 g/ha) | Pre-emergence efficacy against SETVI (Setaria viridis (SETVI) [11]; dosage 320 g/ha) | Pre-emergence efficacy against SETVI (Setaria viridis (SETVI) [11]; dosage 1280 g/ha) | Pre-emergence efficacy against KCHSC (Kochia scoparia (KCHSC) [12]; dosage 320 g/ha) | Pre-emergence efficacy against KCHSC (Kochia scoparia (KCHSC) [12]; dosage 1280 g/ha) | Post-emergence efficacy against ABUTH in % ([13]; 1280 g/ha) | Pre-emergence efficacy against POAAN (Poa annua (POAAN) [14]; dosage 320 g/ha) | Pre-emergence efficacy against POAAN (Poa annua (POAAN) [14]; dosage 1280 g/ha) | Post-emergence efficacy against ECHCG in % [15]

O=S(=O)(CC1CCCO1)Oc1c(F)cccc1Oc1ncc(Cl)cn1 (stereo not drawn) [Example I-54]
90%: Pre-emergence efficacy against LOLRI (Lolium rigidum (LOLRI); dosage 1280 g/ha) | Post-emergence efficacy against SETVI (Setaria viridis (SETVI) [16]) | Pre-emergence efficacy against STEME (Stellaria media (STEME) [2]; dosage 320 g/ha) | Pre-emergence efficacy against DIGSA ([3]; 320 g/ha) | Pre-emergence efficacy against MATIN [4, 22] | Post-emergence efficacy against DIGSA in % ([17]; 1280 g/ha) | Pre-emergence efficacy against VERPE in % (Veronica persica (VERPE) [5]; 1280 g/ha) | Pre-emergence efficacy against ABUTH ([6]; 320 g/ha) | Post-emergence efficacy against STEME (Stellaria media (STEME) [7]; 1280 g/ha) | Post-emergence efficacy against KCHSC (Kochia scoparia (KCHSC) [8]) | Post-emergence efficacy against VERPE (Veronica persica (VERPE) [18]; 80 g/ha) | Post-emergence efficacy against VERPE (Veronica persica (VERPE) [18]; 320 g/ha) | Post-emergence efficacy against VERPE (Veronica persica (VERPE) [18]; 1280 g/ha) | Pre-emergence efficacy against KCHSC (Kochia scoparia (KCHSC) [12]; dosage 1280 g/ha) | Post-emergence efficacy against POAAN (Poa annua (POAAN) [19]) | Post-emergence efficacy against ABUTH in % ([13]; 1280 g/ha) | Pre-emergence efficacy against POAAN (Poa annua (POAAN) [14]; dosage 320 g/ha) | Post-emergence efficacy against ECHCG in % [15] | Post-emergence efficacy against AMARE ([20]; 1280 g/ha)
100%: Pre-emergence efficacy against STEME (Stellaria media (STEME) [2]; dosage 1280 g/ha) | Pre-emergence efficacy against DIGSA ([3]; 1280 g/ha) | Pre-emergence efficacy against ABUTH ([6]; 1280 g/ha) | Pre-emergence efficacy against AMARE in % ([9]; 320 g/ha) | Pre-emergence efficacy against AMARE in % ([9]; 1280 g/ha) | Pre-emergence efficacy against ECHCG ([10]; 320 g/ha) | Pre-emergence efficacy against ECHCG ([10]; 1280 g/ha) | Pre-emergence efficacy against SETVI (Setaria viridis (SETVI) [11]; dosage 320 g/ha) | Pre-emergence efficacy against SETVI (Setaria viridis (SETVI) [11]; dosage 1280 g/ha) | Pre-emergence efficacy against POAAN (Poa annua (POAAN) [14]; dosage 1280 g/ha)

N#Cc1cc(Cl)cnc1Oc1ccccc1OS(=O)(=O)CCCCl [Example I-59]
100%: Pre-emergence efficacy against STEME (Stellaria media (STEME) [2]; dosage 320 g/ha) | Pre-emergence efficacy against STEME (Stellaria media (STEME) [2]; dosage 1280 g/ha) | Pre-emergence efficacy against DIGSA ([3]; 320 g/ha) | Pre-emergence efficacy against DIGSA ([3]; 1280 g/ha) | Pre-emergence efficacy against MATIN [4, 22] | Pre-emergence efficacy against VERPE in % (Veronica persica (VERPE) [5]; 1280 g/ha) | Pre-emergence efficacy against AMARE in % ([9]; 80 g/ha) | Pre-emergence efficacy against AMARE in % ([9]; 320 g/ha) | Pre-emergence efficacy against AMARE in % ([9]; 1280 g/ha) | Pre-emergence efficacy against ECHCG ([10]; 1280 g/ha) | Pre-emergence efficacy against SETVI (Setaria viridis (SETVI) [11]; dosage 320 g/ha) | Pre-emergence efficacy against SETVI (Setaria viridis (SETVI) [11]; dosage 1280 g/ha) | Pre-emergence efficacy against KCHSC (Kochia scoparia (KCHSC) [12]; dosage 320 g/ha) | Pre-emergence efficacy against KCHSC (Kochia scoparia (KCHSC) [12]; dosage 1280 g/ha) | Pre-emergence efficacy against POAAN (Poa annua (POAAN) [14]; dosage 320 g/ha) | Pre-emergence efficacy against POAAN (Poa annua (POAAN) [14]; dosage 1280 g/ha)
90%: Pre-emergence efficacy against LOLRI (Lolium rigidum (LOLRI); dosage 1280 g/ha) | Post-emergence efficacy against SETVI (Setaria viridis (SETVI) [16]) | Pre-emergence efficacy against STEME (Stellaria media (STEME) [2]; dosage 80 g/ha) | Pre-emergence efficacy against MATIN [4, 21] | Post-emergence efficacy against DIGSA in % ([17]; 320 g/ha) | Post-emergence efficacy against DIGSA in % ([17]; 1280 g/ha) | Pre-emergence efficacy against VERPE in % (Veronica persica (VERPE) [5]; 320 g/ha) | Pre-emergence efficacy against ABUTH ([6]; 1280 g/ha) | Post-emergence efficacy against STEME (Stellaria media (STEME) [7]; 320 g/ha) | Post-emergence efficacy against STEME (Stellaria media (STEME) [7]; 1280 g/ha) | Post-emergence efficacy against KCHSC in % (Kochia scoparia (KCHSC) [8]; 320 g/ha) | Post-emergence efficacy against KCHSC (Kochia scoparia (KCHSC) [8]) | Post-emergence efficacy against VERPE (Veronica persica (VERPE) [18]; 80 g/ha) | Post-emergence efficacy against VERPE (Veronica persica (VERPE) [18]; 320 g/ha) | Post-emergence efficacy against VERPE (Veronica persica (VERPE) [18]; 1280 g/ha) | Post-emergence efficacy against POAAN (Poa annua (POAAN) [19]) | Post-emergence efficacy against ABUTH in % ([13]; 320 g/ha) | Post-emergence efficacy against ABUTH in % ([13]; 1280 g/ha) | Post-emergence efficacy against AMARE ([20]; 80 g/ha) | Post-emergence efficacy against AMARE ([20]; 320 g/ha) | Post-emergence efficacy against AMARE ([20]; 1280 g/ha)
